PMC2956624, “Context-Dependent Cell Cycle Checkpoint Abrogation by a Novel Kinase Inhibitor” (PLoS ONE, 2010)

Tested on: HT29 cells
Experiment: Flow cytometry cell cycle profiles, HT29
Format: cell-based, human
Details: for abrogation of DNA damage induced cell cycle arrest: DNA damaging agent 16 hours, then PF-477736 (400 nM) or VX680 (400 nM) 48 hours
Procedure: Fixed cells were analyzed by flow cytometry.
All cells were harvested, fixed in 70% ethanol and stained with propidium iodide/RNase A. Cell cycle profiles were examined by flow cytometry using a FACSArray cytometer (BD) and FACSDiva software (BD).

| Compound | abrogation of DNA damage induced cell cycle arrest | cells remaining arrested in G2 or M (100 nM paclitaxel 18 hours, then 24 hours with 200 nM VER-150548 or 400 nM VX680 (DMSO 65.4%)) [%] | cell cycle effect as single agent (unperturbed cells, 8 to 48 hours) |
| --- | --- | --- | --- |
| Cn1cc(-c2[nH]c3cc(NC(=O)[C@H](N)C4CCCCC4)cc4c3c2C=NNC4=O)cn1 [PF-477736] | abrogated DNA damage induced cell cycle arrest | – | – |
| Cc1cc(Nc2cc(N3CCN(C)CC3)nc(Sc3ccc(NC(=O)C4CC4)cc3)n2)[nH]n1 [VX680] | unable to override the DNA damage induced arrest | 28.5 | caused G2/M arrest at early time points and subsequent reduplication following extended incubation |
